# From publication PMC7156458, “Synthetic biology based construction of biological activity-related library of fungal decalin-containing diterpenoid pyrones” (Nature Communications, 2020)
# Where “and” joins values, the source holds several entries; their conditions need not be identical. Equal entries are not always repeated. Where two headings read alike, the source gives them in different places.
# Experiments:
# MCF-7 cells = test: cell cytotoxic effects against MCF-7 cells (72 h), A490; assay type: cell-based, human; conditions: MCF-7, 72 h
# [1] = cytotoxicity in Drosophila DL1 cells; assay type: cell-based; conditions: Drosophila, DL1 cells (embryonic macrophage-derived), DL1 cells
# Method: (§1) We screened the DDPs on the Drosophila assay system for cytotoxicity, inhibitory activity of innate immune signalling and insecticidal activity. The cytotoxicity of the DDPs was evaluated using two cell lines, embryonic macrophage-derived DL1 cells[58]–[60] and larval blood cell-derived l(2)mbn cells, and their IC50 values are listed in Supplementary Table 23.
# DL1 cells = test: cytotoxicity in Drosophila DL1 cells; assay type: cell-based; conditions: DL1 cells; for IC50: Drosophila melanogaster, cytotoxicity
# Method: as §1
# [2] = cytotoxicity in Drosophila l(2)mbn cells; assay type: cell-based; conditions: Drosophila, l(2)mbn cells (larval blood cell-derived)
# Method: as §1
# l(2)mbn cells = test: cytotoxicity in Drosophila l(2)mbn cells; assay type: cell-based; conditions: for Luminescence Raw1: replicate 1; for Luminescence Raw2: replicate 2
# Method: as §1
# [3] = system: human immunodeficiency virus-1 (HIV-1); test: anti-HIV MAGI assay; assay type: cell-based; conditions: Human immunodeficiency virus 1, MAGI, anti-HIV; average of numeric determinations; read-out: Avg. EC50
# Excerpt: We examined the inhibitory activities of DDPs against various species of bacteria (both gram-negative and gram-positive bacteria), fungi and viruses. […] In contrast, preliminary screening of the DDPs for anti-viral agents with hepatitis B virus (HBV), measles virus (MV), Epstein-Barr virus (EBV), herpes simplex virus (HSV) and human immunodeficiency virus-1 (HIV-1) indicated their selective inhibition of HIV.
# MAGI cells = test: cytotoxicity in the anti-HIV assay (CC50); assay type: cell-based
# [4] = replicate 1, relative to DMSO 1%, read-out: % viability, viability 1
# [5] = replicate 2, relative to DMSO 1%, read-out: % viability, viability 2
smiles,measurement,setting,value
C=C1CCC2C(C)(CC(=O)C=C(C)C)C(O)CCC2(C)C1Cc1c(OC)oc(CO)c(C)c1=O (centres unmarked) [Compound 19],viability at 0.1 µM,"MCF-7 cells; Homo sapiens, MCF7, 72 h, 0.1 µM (DMSO 0.002%), read-out: A490 (control =1) ave",65%
same,viability at 1 µM,"MCF-7 cells; Homo sapiens, MCF7, 72 h, 1 µM (DMSO 0.02%), read-out: A490 (control =1) ave",110%
same,viability at 10 µM,"MCF-7 cells; Homo sapiens, MCF7, 72 h, 10 µM (DMSO 0.2%), read-out: A490 (control =1) ave",104%
same,A490 ave,"MCF-7 cells; 0.1 µM (DMSO 0.002%), control 1.064",0.691
same,A490 ave,"MCF-7 cells; 1 µM (DMSO 0.02%), control 1.104",1.209
same,A490 ave,"MCF-7 cells; 10 µM (DMSO 0.2%), control 1.049",1.093
same,viability at 0.04 µM,[1]; [4],92.6%
same,viability at 0.04 µM,[1]; [5],93.4%
same,viability at 0.2 µM,[1]; [4],78.6%
same,viability at 0.2 µM,[1]; [5],86.7%
same,viability at 1 µM,[1]; [4],92.1%
same,viability at 1 µM,[1]; [5],87%
same,viability at 4 µM,[1]; [4],86.9%
same,viability at 4 µM,[1]; [5],80.7%
same,viability at 10 µM,[1]; [4],52.8%
same,viability at 10 µM,[1]; [5],59.6%
same,viability at 20 µM,[1]; [4],15.3%
same,viability at 20 µM,[1]; [5],22.3%
same,Luminescence Raw1,"DL1 cells; 0.04 µM, replicate 1",1907594
same,Luminescence Raw2,"DL1 cells; 0.04 µM, replicate 2",1924545
same,Luminescence Raw1,"DL1 cells; 0.2 µM, replicate 1",1618356
same,Luminescence Raw2,"DL1 cells; 0.2 µM, replicate 2",1786055
same,Luminescence Raw1,"DL1 cells; 1 µM, replicate 1",1896774
same,Luminescence Raw2,"DL1 cells; 1 µM, replicate 2",1792907
same,Luminescence Raw1,"DL1 cells; 4 µM, replicate 1",1789301
same,Luminescence Raw2,"DL1 cells; 4 µM, replicate 2",1663075
same,Luminescence Raw1,"DL1 cells; 10 µM, replicate 1",1087156
same,Luminescence Raw2,"DL1 cells; 10 µM, replicate 2",1227796
same,Luminescence Raw1,"DL1 cells; 20 µM, replicate 1",315492
same,Luminescence Raw2,"DL1 cells; 20 µM, replicate 2",459001
same,IC50,"DL1 cells; average of two replicates, read-out: IC50 Average",10.6 µM
same,IC50,"DL1 cells; average±SEM, read-out: IC50",10.6 ± 0.23 µM
same,IC50,"DL1 cells; replicate 1, read-out: IC50 (1)",10.3 µM
same,IC50,"DL1 cells; replicate 2, read-out: IC50 (2)",10.8 µM
same,viability at 0.04 µM,[2]; [4],154%
same,viability at 0.04 µM,[2]; [5],105%
same,viability at 0.2 µM,[2]; [4],131%
same,viability at 0.2 µM,[2]; [5],120%
same,viability at 1 µM,[2]; [4],128%
same,viability at 1 µM,[2]; [5],131%
same,viability at 4 µM,[2]; [4],125%
same,viability at 4 µM,[2]; [5],116%
same,viability at 10 µM,[2]; [4],104%
same,viability at 10 µM,[2]; [5],136%
same,viability at 20 µM,[2]; [4],115%
same,viability at 20 µM,[2]; [5],117%
same,Luminescence Raw1,l(2)mbn cells; 0.04 µM,3944169
same,Luminescence Raw2,l(2)mbn cells; 0.04 µM,2684872
same,Luminescence Raw1,l(2)mbn cells; 0.2 µM,3351106
same,Luminescence Raw2,l(2)mbn cells; 0.2 µM,3081647
same,Luminescence Raw1,l(2)mbn cells; 1 µM,3286175
same,Luminescence Raw2,l(2)mbn cells; 1 µM,3371307
same,Luminescence Raw1,l(2)mbn cells; 4 µM,3215834
same,Luminescence Raw2,l(2)mbn cells; 4 µM,2985337
same,Luminescence Raw1,l(2)mbn cells; 10 µM,2665756
same,Luminescence Raw2,l(2)mbn cells; 10 µM,3480969
same,Luminescence Raw1,l(2)mbn cells; 20 µM,2956119
same,Luminescence Raw2,l(2)mbn cells; 20 µM,3004455
same,IC50,"l(2)mbn cells; Drosophila melanogaster, cytotoxicity, average±SEM, read-out: IC50",> 20 µM
same,EC50,[3],1.6 µM
same,Cytotoxicity Avg.,MAGI cells; average of numeric determinations,6.013 µM
same,Cytotoxicity,MAGI cells; single determinations,6.158 µM and 7.239 µM and 4.642 µM
